The results in this text go back to ChEMBL document CHEMBL1201862, “PubChem BioAssay data set” (2004).

What all share (assay): inhibition of tumour cell growth, NCI panel, 48 h
Assay [1] concerns HCC 2998.
The subject of assay [2] is MDA-MB-435.
Assay [3] relates to SW-620.
The subject of assay [4] is SK-MEL-5.
Assay [5] concerns SF-295.
For assay [6], the system named is HCT-15.
Assay [7] concerns NCI-H23.
The test system of assay [8] is HL-60.
The subject of assay [9] is A549.
For assay [10], the system named is K562.
The subject of assay [11] is ACHN.
The subject of assay [12] is PC-3.
The test system of assay [13] is SF-539.
Assay [14] has as its system HT-29.
The subject of assay [15] is EKVX.
Assay [16] concerns RXF 393.
For assay [17], the system named is M14.
The test system of assay [18] is COLO 205.
Assay [19] concerns NCI/ADR-RES.

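All cell lines were grown in 96-well plates and treated with compound for 48 hours. GI50 = concentration required for 50% inhibition of growth.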 Calls of active or inactive are those of the source. Rule as the data show it: active = GI50 up to about 1.1 µM and inactive = higher.

With `Cc1cc2c(cc1Cl)Sc1nnc(C)n1S2(=O)=O`, the GI50 in [1] was 17.7 µM (inactive); in [2], 13 µM (inactive); in assay [3], 15.4 µM (inactive); in assay [4] it was 13.6 µM (inactive); in [5], 15.7 µM (inactive); in assay [6], 11.2 µM. Moreover, the GI50 in assay [7] is 12.9 µM (inactive); in assay [8] it was 6.78 µM (inactive); in assay [9], 25.1 µM (inactive); in assay [10] it was 13.8 µM (inactive); in [11], 11.9 µM (inactive); in [12], 15 µM (inactive). In addition, the GI50 was 17.9 µM (inactive) in assay [13]; 18.5 µM (inactive) in assay [14]; 16 µM (inactive) in assay [15]; 17.6 µM (inactive) in [16]; 14 µM (inactive) in assay [17]; 15.2 µM (inactive) in assay [18]. Also, the GI50 in [19] was 27 µM (inactive).

As for `O=Cc1ccc2c(c1)CC1(C2)Cc2ccc(C=O)cc2C1`, the GI50 in [1] was 35.8 µM (inactive); in assay [2], 2.62 µM (inactive); in assay [3], 16.1 µM (inactive); in [4] it was 5.28 µM (inactive); in [5], > 45.2 µM (inactive); in assay [6], 7.03 µM. The GI50 in assay [7] was 17.6 µM (inactive); in [8] it was 2 µM (inactive); in assay [9], 40.5 µM (inactive); in assay [10] it was 2.89 µM (inactive); in [11] it was 24.4 µM (inactive); in assay [12] it was 17.1 µM (inactive). Besides, the GI50 in assay [13] was 4.81 µM (inactive); in assay [14] it was 24.5 µM (inactive); in [15] it was 28.2 µM (inactive); in [16], 3.61 µM (inactive); in assay [17], 6.14 µM (inactive); in assay [18], 30.3 µM (inactive). Moreover, the GI50 in [19] was 4.88 µM (inactive).

Regarding `CSc1nncc(-c2cc3c(c(SC)n2)CCCC3)n1`, the GI50 in assay [1] is > 100 µM (inactive); in [2], > 100 µM (inactive); in assay [3] it was > 100 µM (inactive); in assay [4], > 100 µM (inactive); in assay [5], > 100 µM (inactive); in assay [6] it was > 100 µM. Moreover, the GI50 in assay [7], in assay [8], in assay [9], in assay [10], in assay [11] and in [12] was > 100 µM (inactive) each time. Also, the GI50 in assay [13] is > 100 µM (inactive); in [14], > 100 µM (inactive); in assay [15] it was > 100 µM (inactive); in [16] it was 47.3 µM (inactive); in assay [17] it was > 100 µM (inactive); in assay [18] it was > 100 µM (inactive). In assay [19], the GI50 is > 100 µM (inactive).

Take `COCCOC(=O)C1=C(O)c2ccccc2S(=O)(=O)N1C`: the GI50 was > 100 µM (inactive) in assay [1]; > 100 µM (inactive) in assay [2]; > 100 µM (inactive) in [3]; > 100 µM (inactive) in [4]; > 100 µM (inactive) in assay [5]; > 100 µM in assay [6]. For the same compound, the GI50 in assay [7], in [8], in [9], in [10], in assay [11] and in [12] was > 100 µM (inactive) each time. Also, the GI50 in assay [13], in [14], in [15], in assay [16], in [17] and in assay [18] was > 100 µM (inactive) throughout. Further, the GI50 in assay [19] was > 100 µM (inactive).

Consider `CSc1ccc(C2C(Cl)C(=O)N2NC(=O)c2c(Cl)c(Cl)c(Cl)c(Cl)c2-c2nc3ccccc3[nH]2)cc1` (centres undefined), for which the GI50 in [1] is 20.2 µM (inactive); in assay [2] it was 13.3 µM (inactive); in assay [3] it was 25.8 µM (inactive); in assay [4], 17.1 µM (inactive); in [5], 33.1 µM (inactive); in assay [6], 19.1 µM. Moreover, the GI50 in assay [7] is 15.6 µM (inactive); in assay [8], 19.1 µM (inactive); in assay [9], 31.4 µM (inactive); in [10] it was 18.1 µM (inactive); in [11], 24.2 µM (inactive); in assay [12], 17.5 µM (inactive). The GI50 in [13] was 20.8 µM (inactive); in assay [14] it was 33.3 µM (inactive); in assay [15] it was 16.5 µM (inactive); in [16], 1.97 µM (inactive); in assay [17], 20.5 µM (inactive); in assay [18] it was 20.3 µM (inactive). Besides, the GI50 in assay [19] is 29.9 µM (inactive).

On to `C=CCOC(=O)/C(=C\c1ccc(OC)c(OC)c1)c1ccc(OC)c(OC)c1`, for which the GI50 is > 100 µM (inactive) in assay [1]; 56 µM (inactive) in assay [2]; 54.1 µM (inactive) in [3]; 42.3 µM (inactive) in assay [4]; 52.1 µM (inactive) in assay [5]; > 100 µM in assay [6]. Moreover, the GI50 was 39.2 µM (inactive) in assay [7]; 15.5 µM (inactive) in assay [8]; 61.7 µM (inactive) in assay [9]; 57.8 µM (inactive) in assay [10]; 56.2 µM (inactive) in [11]; 33.1 µM (inactive) in [12]. Also, the GI50 is > 100 µM (inactive) in assay [13]; 28.1 µM (inactive) in assay [14]; 88.5 µM (inactive) in assay [15]; 27.9 µM (inactive) in assay [16]; > 100 µM (inactive) in [17]; 27.5 µM (inactive) in [18]. In assay [19], the GI50 was 40.6 µM (inactive).

On to `CCCC(=O)[O-].[Na+]` [SODIUM BUTYRATE], for which the GI50 in assay [1] is 400 µM (inactive); in assay [2] it was 3470 µM (inactive); in assay [3], 2310 µM (inactive); in [4], 635 µM (inactive); in [5], 7660 µM (inactive); in assay [6], 10600 µM. The GI50 in assay [7] is 3970 µM (inactive); in assay [8], 721 µM (inactive); in [9] it was 7830 µM (inactive); in [10], 1000 µM (inactive); in assay [11], 4470 µM (inactive); in assay [12] it was 7100 µM (inactive). The GI50 is 3000 µM (inactive) in assay [13]; 4000 µM (inactive) in assay [14]; 18700 µM (inactive) in assay [15]; 8390 µM (inactive) in assay [16]; 5460 µM (inactive) in assay [17]; 533 µM (inactive) in assay [18]. Further, the GI50 in assay [19] was 843 µM (inactive).

Consider `COc1c2ccoc2c(OC)c2oc(=O)ccc12` [ISOPIMPINELLIN], for which the GI50 is > 100 µM (inactive) in [1]; > 100 µM (inactive) in assay [2]; > 100 µM (inactive) in assay [3]; 94.4 µM (inactive) in assay [4]; > 100 µM (inactive) in assay [5]; > 100 µM in [6]. For the same compound, the GI50 in [7], in [8], in [9], in assay [10], in assay [11] and in [12] was > 100 µM (inactive) throughout. Moreover, the GI50 in assay [13] was > 100 µM (inactive); in assay [14], > 100 µM (inactive); in [15] it was 70.1 µM (inactive); in assay [16], 45.8 µM (inactive); in [17], > 100 µM (inactive); in assay [18] it was > 100 µM (inactive). Also, in [19], the GI50 was > 100 µM (inactive).

On to `CCOC(=O)c1c(C)n(-c2ccc(Cl)cc2)c2c1cc(O)c1[nH]c3c(c12)CCCC3`, for which the GI50 in [1] is 60.7 µM (inactive); in assay [2], 24.9 µM (inactive); in assay [3] it was 47.3 µM (inactive); in [4], 21.6 µM (inactive); in [5], 52.8 µM (inactive); in assay [6] it was > 100 µM. Moreover, the GI50 was 48.6 µM (inactive) in assay [7]; 34.6 µM (inactive) in [8]; > 100 µM (inactive) in [9]; 41.3 µM (inactive) in assay [10]; 46.3 µM (inactive) in assay [11]; 41 µM (inactive) in assay [12]. In addition, the GI50 in assay [13] is 42.5 µM (inactive); in [14], 30.2 µM (inactive); in [15] it was 75.7 µM (inactive); in assay [16], 19.5 µM (inactive); in [17], 57.3 µM (inactive); in [18], 48.8 µM (inactive). Besides, the GI50 in assay [19] is > 100 µM (inactive).

Take `COC(=O)NC(=O)NC(Cc1ccccc1)NC(=O)OCc1ccccc1` (centres undefined): the GI50 is > 100 µM (inactive) in [1]; > 100 µM (inactive) in assay [2]; > 100 µM (inactive) in assay [3]; > 100 µM (inactive) in [4]; 35.5 µM (inactive) in assay [5]; > 100 µM in assay [6]. Besides, the GI50 was 40.3 µM (inactive) in [7]; > 100 µM (inactive) in assay [8]; 97.7 µM (inactive) in assay [9]; > 100 µM (inactive) in assay [10]; > 100 µM (inactive) in [11]; > 100 µM (inactive) in assay [12]. Also, the GI50 in assay [13] was 19.6 µM (inactive); in assay [14], > 100 µM (inactive); in assay [15], > 100 µM (inactive); in [16] it was 20.5 µM (inactive); in assay [17], > 100 µM (inactive); in [18], > 100 µM (inactive). In [19], the GI50 is > 100 µM (inactive).

As to `O=C(NN1C(=O)CSC1c1ccco1)c1ccncc1` (centres undefined), the GI50 was > 100 µM (inactive) in assay [1]; > 100 µM (inactive) in [2]; > 100 µM (inactive) in assay [3]; > 100 µM (inactive) in assay [4]; > 100 µM (inactive) in assay [5]; > 100 µM in assay [6]. The GI50 in [7], in assay [8], in [9], in assay [10], in [11] and in [12] was > 100 µM (inactive) throughout. Besides, the GI50 in assay [13], in [14], in assay [15], in [16], in assay [17] and in assay [18] was > 100 µM (inactive) each time. Also, the GI50 in assay [19] was > 100 µM (inactive).
